# Assay results reported in paper PMC5218480 (PLoS ONE, 2017).
# Tested on: MV-4-11 cells
# Experiment: Gene expression microarray analysis (Affymetrix PrimeView) and GSEA
# Format: cell-based, human
# Set-up: RFU PODN (11730768_x_at) / Fold change /veh PODN (11730768_x_at) / RFU LINC00158 (11744669_a_at) / Fold change /veh LINC00158 (11744669_a_at) / RFU DUSP10 (11751237_a_at) / Fold change /veh DUSP10 (11751237_a_at) / RFU ID3 (11757404_x_at) / Fold change /veh ID3 (11757404_x_at) / RFU PLEKHG5 (11737974_s_at) / Fold change /veh PLEKHG5 (11737974_s_at) / RFU LRRC4B (11730491_at) / Fold change /veh LRRC4B (11730491_at) / RFU GIMAP4 (11747438_a_at) / Fold change /veh GIMAP4 (11747438_a_at) / RFU KRT8 (11758183_x_at) / Fold change /veh KRT8 (11758183_x_at) / RFU CNN1 (11734310_a_at) / Fold change /veh CNN1 (11734310_a_at) / RFU VPS37D (11726825_at) / Fold change /veh VPS37D (11726825_at) / RFU C10orf10 (11716522_x_at) / Fold change /veh C10orf10 (11716522_x_at) / RFU KIR2DL2 /// KIR2DL4 /// KIR2DL5A /// KIR2DL5B /// KIR2DS1 /// KIR2DS2 /// KIR2DS3 /// KIR2DS4 /// KIR3DL3 /// KIR3DL3 /// KIR3DS1 (11738374_at) / Fold change /veh KIR2DL2 /// KIR2DL4 /// KIR2DL5A /// KIR2DL5B /// KIR2DS1 /// KIR2DS2 /// KIR2DS3 /// KIR2DS4 /// KIR3DL3 /// KIR3DL3 /// KIR3DS1 (11738374_at) / RFU C1QL1 (11718748_at) / Fold change /veh C1QL1 (11718748_at) / RFU TMPRSS4 (11747572_a_at) / Fold change /veh TMPRSS4 (11747572_a_at) / RFU HAMP (11756126_x_at) / Fold change /veh HAMP (11756126_x_at) / RFU RNFT2 (11725882_a_at) / Fold change /veh RNFT2 (11725882_a_at) / RFU NR4A2 (11747474_a_at) / Fold change /veh NR4A2 (11747474_a_at) / RFU ABCC12 (11746883_a_at) / Fold change /veh ABCC12 (11746883_a_at) / RFU TMEM136 (11760407_x_at) / Fold change /veh TMEM136 (11760407_x_at) / RFU CLDN22 /// WWC2 (11732394_at) / Fold change /veh CLDN22 /// WWC2 (11732394_at) / RFU HLA-DPB1 (11760878_x_at) / Fold change /veh HLA-DPB1 (11760878_x_at) / RFU SPINT1 (11716480_a_at) / Fold change /veh SPINT1 (11716480_a_at) / RFU GAP43 (11754022_s_at) / Fold change /veh GAP43 (11754022_s_at) / RFU A4GNT (11735810_at) / Fold change /veh A4GNT (11735810_at) / RFU PRB3 (11715151_x_at) / Fold change /veh PRB3 (11715151_x_at) / RFU TUBB4B (11761932_at) / Fold change /veh TUBB4B (11761932_at) / RFU CAPN14 (11732068_a_at) / Fold change /veh CAPN14 (11732068_a_at) / RFU TMCC2 (11721928_a_at) / Fold change /veh TMCC2 (11721928_a_at) / RFU IRGQ (11745062_a_at) / Fold change /veh IRGQ (11745062_a_at) / RFU FAM174B (11720279_a_at) / Fold change /veh FAM174B (11720279_a_at) / RFU TMPRSS4 (11748680_a_at) / Fold change /veh TMPRSS4 (11748680_a_at) / RFU FAM212B (11763350_a_at) / Fold change /veh FAM212B (11763350_a_at) / RFU PLEKHG5 (11743358_a_at) / Fold change /veh PLEKHG5 (11743358_a_at) / RFU ZSCAN30 (11745921_a_at) / Fold change /veh ZSCAN30 (11745921_a_at) / RFU CMKLR1 (11741424_a_at) / Fold change /veh CMKLR1 (11741424_a_at) / RFU LOC101060620 /// MAPK8IP1 (11723275_at) / Fold change /veh LOC101060620 /// MAPK8IP1 (11723275_at) / RFU SPTSSB (11747773_x_at) / Fold change /veh SPTSSB (11747773_x_at) / RFU PRSS12 (11739890_at) / Fold change /veh PRSS12 (11739890_at) / RFU BIN1 (11741810_x_at) / Fold change /veh BIN1 (11741810_x_at) / RFU WNT11 (11732464_a_at) / Fold change /veh WNT11 (11732464_a_at) / RFU C10orf10 (11716521_a_at) / Fold change /veh C10orf10 (11716521_a_at) / RFU C5orf56 (11738089_at) / Fold change /veh C5orf56 (11738089_at) / RFU CYB561 (11721691_x_at) / Fold change /veh CYB561 (11721691_x_at) / RFU ANKRD19P (11752326_a_at) / Fold change /veh ANKRD19P (11752326_a_at) / RFU OR2T12 /// OR2T33 /// OR2T8 (11738714_s_at) / Fold change /veh OR2T12 /// OR2T33 /// OR2T8 (11738714_s_at) / RFU VCAN (11748164_a_at) / Fold change /veh VCAN (11748164_a_at) / RFU JSRP1 (11732532_at) / Fold change /veh JSRP1 (11732532_at) / RFU KRTAP10-11 (11738290_x_at) / Fold change /veh KRTAP10-11 (11738290_x_at) / RFU MYO3A (11730013_a_at) / Fold change /veh MYO3A (11730013_a_at) / RFU EBF3 (11725865_a_at) / Fold change /veh EBF3 (11725865_a_at) / RFU CAMK2N1 (11719241_x_at) / Fold change /veh CAMK2N1 (11719241_x_at) / RFU C5orf56 (11738088_a_at) / Fold change /veh C5orf56 (11738088_a_at) / RFU OLFML3 (11715873_a_at) / Fold change /veh OLFML3 (11715873_a_at) / RFU LOC100653217 /// NTM (11731650_a_at) / Fold change /veh LOC100653217 /// NTM (11731650_a_at) / RFU MAPK11 (11762145_a_at) / Fold change /veh MAPK11 (11762145_a_at) / RFU FIZ1 (11724087_x_at) / Fold change /veh FIZ1 (11724087_x_at) / RFU OASL (11726364_x_at) / Fold change /veh OASL (11726364_x_at) / RFU SOX15 (11748057_x_at) / Fold change /veh SOX15 (11748057_x_at) / RFU CD79A (11719716_a_at) / Fold change /veh CD79A (11719716_a_at) / RFU HIST1H1D (11736915_at) / Fold change /veh HIST1H1D (11736915_at) / RFU CASKIN2 (11723855_a_at) / Fold change /veh CASKIN2 (11723855_a_at) / RFU LOC730098 (11760151_x_at) / Fold change /veh LOC730098 (11760151_x_at) / RFU OR4N2 (11742367_at) / Fold change /veh OR4N2 (11742367_at) / RFU PRRT2 (11749266_a_at) / Fold change /veh PRRT2 (11749266_a_at) / RFU SNX32 (11753110_a_at) / Fold change /veh SNX32 (11753110_a_at) / RFU CDHR5 (11726645_a_at) / Fold change /veh CDHR5 (11726645_a_at) / RFU RCAN1 (11760418_a_at) / Fold change /veh RCAN1 (11760418_a_at) / RFU FAM167A (11723789_a_at) / Fold change /veh FAM167A (11723789_a_at) / RFU FAM26E (11764081_at) / Fold change /veh FAM26E (11764081_at) / RFU ISYNA1 (11749810_s_at) / Fold change /veh ISYNA1 (11749810_s_at) / RFU ACY1 (11761880_at) / Fold change /veh ACY1 (11761880_at) / RFU 11764098_at / Fold change /veh 11764098_at / RFU SAMD14 (11745864_x_at) / Fold change /veh SAMD14 (11745864_x_at) / RFU NPB (11741838_a_at) / Fold change /veh NPB (11741838_a_at) / RFU TMPRSS6 (11731388_a_at) / Fold change /veh TMPRSS6 (11731388_a_at) / RFU KRTAP10-2 (11738614_at) / Fold change /veh KRTAP10-2 (11738614_at) / RFU ARHGAP8 /// PRR5-ARHGAP8 (11727945_x_at) / Fold change /veh ARHGAP8 /// PRR5-ARHGAP8 (11727945_x_at) / RFU KRTAP5-7 /// NADSYN1 (11734609_at) / Fold change /veh KRTAP5-7 /// NADSYN1 (11734609_at) / RFU RASL12 (11751679_a_at) / Fold change /veh RASL12 (11751679_a_at) / RFU CDKN2B (11736163_a_at) / Fold change /veh CDKN2B (11736163_a_at) / RFU PRF1 (11729649_at) / Fold change /veh PRF1 (11729649_at) / RFU, ZNF638 /// ZNF638-IT1 / Fold change vs veh, ZNF638 /// ZNF638-IT1 / RFU, PANK3 / Fold change vs veh, PANK3 / RFU, SH3YL1 / Fold change vs veh, SH3YL1 / RFU, ZEB2 / Fold change vs veh, ZEB2 / RFU, NRIP1 / Fold change vs veh, NRIP1 / RFU, PTTG1IP / Fold change vs veh, PTTG1IP / RFU, CAPN2 / Fold change vs veh, CAPN2 / RFU, MED14 / Fold change vs veh, MED14 / RFU, SNORA58 / Fold change vs veh, SNORA58 / RFU, C1orf63 / Fold change vs veh, C1orf63 / RFU, LRRFIP1 / Fold change vs veh, LRRFIP1 / RFU, NDUFAF7 / Fold change vs veh, NDUFAF7 / RFU, SLC12A2 / Fold change vs veh, SLC12A2 / RFU, IBTK / Fold change vs veh, IBTK / RFU, ESF1 / Fold change vs veh, ESF1 / Fold change vs veh, TMEM50B / RFU, TAOK1 / Fold change vs veh, TAOK1 / RFU, ACBD3 / Fold change vs veh, ACBD3 / RFU, TMA16 / Fold change vs veh, TMA16 / RFU, RWDD3 / Fold change vs veh, RWDD3 / RFU, BCAT1 / Fold change vs veh, BCAT1 / RFU, EDEM3 / Fold change vs veh, EDEM3 / RFU, TMEM33 / Fold change vs veh, TMEM33 / RFU, WDR75 / Fold change vs veh, WDR75 / RFU, AHCTF1 / Fold change vs veh, AHCTF1 / RFU, TFRC / Fold change vs veh, TFRC / RFU, ZDHHC17 / Fold change vs veh, ZDHHC17 / RFU, NOM1 / Fold change vs veh, NOM1 / RFU, ARL8B / Fold change vs veh, ARL8B / RFU, ZBTB11 / Fold change vs veh, ZBTB11 / RFU, TAMM41 / Fold change vs veh, TAMM41 / RFU, KIAA1704 /// LOC100996395 / Fold change vs veh, KIAA1704 /// LOC100996395 / RFU, ING1 / Fold change vs veh, ING1 / RFU, TRMT61B / Fold change vs veh, TRMT61B / RFU, FUBP3 / Fold change vs veh, FUBP3 / RFU, TP53 / Fold change vs veh, TP53 / RFU, TNKS2 / Fold change vs veh, TNKS2 / RFU, ZFP14 / Fold change vs veh, ZFP14 / RFU, ACTR2 / Fold change vs veh, ACTR2 / RFU, PPP3R1 / Fold change vs veh, PPP3R1 / RFU, PIK3R1 / Fold change vs veh, PIK3R1 / RFU, HNRNPA1 / Fold change vs veh, HNRNPA1 / RFU, RNF170 / Fold change vs veh, RNF170 / RFU, ZNF28 / Fold change vs veh, ZNF28 / RFU, RNGTT / Fold change vs veh, RNGTT / RFU, OGT / Fold change vs veh, OGT / RFU, BRD1 / Fold change vs veh, BRD1 / RFU, MARS / Fold change vs veh, MARS / RFU, ZNF655 / Fold change vs veh, ZNF655 / RFU, FAHD1 / Fold change vs veh, FAHD1 / RFU, BDP1 / Fold change vs veh, BDP1 / RFU, LRRCC1 / Fold change vs veh, LRRCC1 / RFU, ARID1A / Fold change vs veh, ARID1A / RFU, ZNF146 / Fold change vs veh, ZNF146 / RFU, ZNF330 / Fold change vs veh, ZNF330 / RFU, GPN3 / Fold change vs veh, GPN3 / RFU, C9orf123 / Fold change vs veh, C9orf123 / RFU, N4BP2L2 / Fold change vs veh, N4BP2L2 / RFU, ARFIP1 / Fold change vs veh, ARFIP1 / RFU, FAM179B / Fold change vs veh, FAM179B / RFU, BCL10 / Fold change vs veh, BCL10 / RFU, UHRF1BP1L / Fold change vs veh, UHRF1BP1L / RFU, BET1 / Fold change vs veh, BET1 / RFU, CNOT2 / Fold change vs veh, CNOT2 / RFU, ZNF268 / Fold change vs veh, ZNF268 / Fold change vs veh, ZNF507 / RFU, DGCR2 / Fold change vs veh, DGCR2 / RFU, WDSUB1 / Fold change vs veh, WDSUB1 / Fold change vs veh, HSP90B1 /// MIR3652 / RFU, ADSS / Fold change vs veh, ADSS / RFU, GK / Fold change vs veh, GK / RFU, ZNF148 / Fold change vs veh, ZNF148 / RFU, TAF9 / Fold change vs veh, TAF9 / RFU, SLC1A5 / Fold change vs veh, SLC1A5 / RFU, SLMO2 / Fold change vs veh, SLMO2 / RFU, ABCC4 / Fold change vs veh, ABCC4 / RFU, LOC101060439 /// RAP1B / Fold change vs veh, LOC101060439 /// RAP1B / RFU, RFX7 / Fold change vs veh, RFX7 / RFU, GTPBP10 / Fold change vs veh, GTPBP10 / RFU, CNEP1R1 / Fold change vs veh, CNEP1R1 / RFU, BIVM-ERCC5 /// ERCC5 / Fold change vs veh, BIVM-ERCC5 /// ERCC5 / RFU, ILF3 / Fold change vs veh, ILF3 / RFU 11762660_at / Fold change /veh 11762660_at / RFU VCAN (11757783_s_at) / Fold change /veh VCAN (11757783_s_at) / RFU DDX43 (11728927_at) / Fold change /veh DDX43 (11728927_at) / RFU KRT8 (11758188_x_at) / Fold change /veh KRT8 (11758188_x_at) / RFU NKD1 (11759106_at) / Fold change /veh NKD1 (11759106_at) / RFU SRD5A1 (11742802_a_at) / Fold change /veh SRD5A1 (11742802_a_at) / RFU TPSAB1 /// TPSB2 (11721975_s_at) / Fold change /veh TPSAB1 /// TPSB2 (11721975_s_at) / RFU GSTM3 (11746129_a_at) / Fold change /veh GSTM3 (11746129_a_at) / RFU IL23R (11737362_x_at) / Fold change /veh IL23R (11737362_x_at) / RFU TMEM51 (11727254_a_at) / Fold change /veh TMEM51 (11727254_a_at) / RFU PIWIL2 (11732686_x_at) / Fold change /veh PIWIL2 (11732686_x_at) / RFU ORM1 (11744905_x_at) / Fold change /veh ORM1 (11744905_x_at) / RFU CCDC152 (11743942_at) / Fold change /veh CCDC152 (11743942_at) / RFU ECM1 (11717891_a_at) / Fold change /veh ECM1 (11717891_a_at) / RFU IL23R (11748794_a_at) / Fold change /veh IL23R (11748794_a_at) / RFU TNFAIP8L3 (11732012_x_at) / Fold change /veh TNFAIP8L3 (11732012_x_at) / RFU MBOAT4 (11741988_at) / Fold change /veh MBOAT4 (11741988_at) / RFU 11764193_at / Fold change /veh 11764193_at / RFU TMEM53 (11763286_at) / Fold change /veh TMEM53 (11763286_at) / RFU MAGEB2 (11727129_at) / Fold change /veh MAGEB2 (11727129_at) / RFU TMEM200A (11744735_a_at) / Fold change /veh TMEM200A (11744735_a_at) / RFU CCDC152 (11751479_a_at) / Fold change /veh CCDC152 (11751479_a_at) / RFU FAM211A (11726209_a_at) / Fold change /veh FAM211A (11726209_a_at) / RFU RGS16 (11746705_a_at) / Fold change /veh RGS16 (11746705_a_at) / RFU VCAN (11755009_s_at) / Fold change /veh VCAN (11755009_s_at) / RFU RHOB (11743442_s_at) / Fold change /veh RHOB (11743442_s_at) / RFU RGS16 (11720943_a_at) / Fold change /veh RGS16 (11720943_a_at) / RFU RGS16 (11720944_at) / Fold change /veh RGS16 (11720944_at) / RFU, VPS4B / Fold change vs veh, VPS4B / RFU, CREB1 / Fold change vs veh, CREB1 / RFU, DNAJC13 / Fold change vs veh, DNAJC13 / RFU, GNAQ / Fold change vs veh, GNAQ / RFU, CDK5R1 / Fold change vs veh, CDK5R1 / RFU, ZRANB3 / Fold change vs veh, ZRANB3 / RFU, CUL4A / Fold change vs veh, CUL4A / RFU, CCNY / Fold change vs veh, CCNY / RFU, UFL1 / Fold change vs veh, UFL1 / RFU, COG3 / Fold change vs veh, COG3 / RFU, DIAPH2 / Fold change vs veh, DIAPH2 / RFU, SKA2 / Fold change vs veh, SKA2 / RFU, AFF3 / Fold change vs veh, AFF3 / RFU, LMF1 / Fold change vs veh, LMF1 / RFU, IPO11 / Fold change vs veh, IPO11 / RFU, DFFB / Fold change vs veh, DFFB / RFU, FOXP1 / Fold change vs veh, FOXP1 / RFU, CARD8 / Fold change vs veh, CARD8 / RFU, STRN3 / Fold change vs veh, STRN3 / RFU, ADK / Fold change vs veh, ADK / RFU, RASSF2 / Fold change vs veh, RASSF2 / RFU, WIPF1 / Fold change vs veh, WIPF1 / RFU, LARP1B / Fold change vs veh, LARP1B / RFU, RASA1 / Fold change vs veh, RASA1 / RFU, RB1 / Fold change vs veh, RB1 / RFU, PPFIA1 / Fold change vs veh, PPFIA1 / RFU, MAT2A / Fold change vs veh, MAT2A / RFU, CCT5 / Fold change vs veh, CCT5 / RFU, WDR92 / Fold change vs veh, WDR92 / RFU, CUX1 / Fold change vs veh, CUX1 / RFU, TTC7A / Fold change vs veh, TTC7A / RFU, TMEM135 / Fold change vs veh, TMEM135 / RFU, DEPTOR / Fold change vs veh, DEPTOR / RFU, CPM / Fold change vs veh, CPM / RFU, DNAJB6 / Fold change vs veh, DNAJB6 / RFU, CACNA2D3 / Fold change vs veh, CACNA2D3 / RFU, DTX4 / Fold change vs veh, DTX4 / RFU, TFCP2 / Fold change vs veh, TFCP2 / RFU, GMCL1 /// GMCL1P1 / Fold change vs veh, GMCL1 /// GMCL1P1 / RFU, AEBP2 / Fold change vs veh, AEBP2 / RFU, SNHG1 /// SNORD22 /// SNORD25 /// SNORD26 /// SNORD27 /// SNORD28 /// SNORD29 /// SNORD31 / Fold change vs veh, SNHG1 /// SNORD22 /// SNORD25 /// SNORD26 /// SNORD27 /// SNORD28 /// SNORD29 /// SNORD31 / Fold change (Aza/veh), C12orf56 (ProbeSet 11735607_a_at) / Fold change (ACY-1035/veh), C12orf56 (ProbeSet 11735607_a_at) / Fold change (Aza/veh), FGFR1OP (ProbeSet 11751329_s_at) / Fold change (ACY-1035/veh), FGFR1OP (ProbeSet 11751329_s_at) / Fold change (Aza/veh), VPS36 (ProbeSet 11739960_a_at) / Fold change (ACY-1035/veh), VPS36 (ProbeSet 11739960_a_at) / RFU SYPL1 (11715823_x_at) / Fold change /veh SYPL1 (11715823_x_at) / RFU IGFBP7 (11715501_s_at) / Fold change /veh IGFBP7 (11715501_s_at) / RFU REEP3 (11722064_at) / Fold change /veh REEP3 (11722064_at) / RFU IGLL1 (11728026_x_at) / Fold change /veh IGLL1 (11728026_x_at): dose or concentration left out as unconfirmed
# Conditions: ProbeSet 11727641_at; LIST B
smiles,measurement,value
Nc1ccc(-c2cccs2)cc1NC(=O)c1ccc2c(c1)cc(C1CC1)n2CCN1CCOCC1 [ACY-1035],"RFU, NOM1",160.01 RFU
